Test results reported in ChEMBL document CHEMBL2380218, “A facile chemo-, regio- and stereoselective synthesis and cholinesterase inhibitory activity of spirooxindole-pyrrolizine-piperidine hybrids” (Bioorg Med Chem Lett, 2013).

What was measured:
Acetylcholinesterase = Acetylcholinesterase (Homo sapiens, UniProt P22303); assay: Inhibition of AChE (unknown origin) using acetylthiocholine iodide as substrate incubated for 15 mins prior to substrate addition measured after 30 mins by Ellman's method
Cholinesterase = Cholinesterase (Equus caballus, UniProt P81908); assay: Inhibition of equine serum BuChE using S-butyrylthiocholine chloride as substrate incubated for 15 mins prior to substrate addition measured after 30 mins by Ellman's method
Cholinesterase, sequence (P81908 whole entry): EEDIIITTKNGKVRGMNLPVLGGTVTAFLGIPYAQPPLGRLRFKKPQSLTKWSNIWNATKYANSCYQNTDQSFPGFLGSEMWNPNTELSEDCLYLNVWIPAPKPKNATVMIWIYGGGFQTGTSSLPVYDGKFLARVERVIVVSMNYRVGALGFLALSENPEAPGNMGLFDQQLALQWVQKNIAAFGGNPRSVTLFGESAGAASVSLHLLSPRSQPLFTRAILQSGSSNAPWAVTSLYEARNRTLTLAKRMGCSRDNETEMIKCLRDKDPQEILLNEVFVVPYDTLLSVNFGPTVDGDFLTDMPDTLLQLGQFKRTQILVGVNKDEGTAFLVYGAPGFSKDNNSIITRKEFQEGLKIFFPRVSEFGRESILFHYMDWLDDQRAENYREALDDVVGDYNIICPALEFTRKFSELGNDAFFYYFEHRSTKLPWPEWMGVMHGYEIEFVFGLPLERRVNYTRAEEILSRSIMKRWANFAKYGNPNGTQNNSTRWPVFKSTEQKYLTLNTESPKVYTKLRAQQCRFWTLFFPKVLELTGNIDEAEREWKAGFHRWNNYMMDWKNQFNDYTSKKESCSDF

Acetylcholinesterase, sequence (P22303 whole entry): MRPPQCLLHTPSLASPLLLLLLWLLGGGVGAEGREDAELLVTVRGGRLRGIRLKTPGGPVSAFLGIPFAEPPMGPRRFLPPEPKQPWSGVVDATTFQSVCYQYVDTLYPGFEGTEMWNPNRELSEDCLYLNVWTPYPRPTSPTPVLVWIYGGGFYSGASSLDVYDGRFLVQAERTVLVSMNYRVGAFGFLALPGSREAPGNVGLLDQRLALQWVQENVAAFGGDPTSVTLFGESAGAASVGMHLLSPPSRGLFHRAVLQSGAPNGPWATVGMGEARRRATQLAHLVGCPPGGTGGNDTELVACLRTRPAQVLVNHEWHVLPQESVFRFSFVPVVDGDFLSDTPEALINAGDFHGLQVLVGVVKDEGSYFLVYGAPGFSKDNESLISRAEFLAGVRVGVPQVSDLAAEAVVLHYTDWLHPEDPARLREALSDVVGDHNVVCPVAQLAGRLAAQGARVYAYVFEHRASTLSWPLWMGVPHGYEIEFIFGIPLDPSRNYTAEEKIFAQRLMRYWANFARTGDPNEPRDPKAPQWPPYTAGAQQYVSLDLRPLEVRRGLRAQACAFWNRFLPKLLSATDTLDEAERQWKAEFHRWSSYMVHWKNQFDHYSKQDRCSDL

SMILES | IC50 (Acetylcholinesterase) [µM] | IC50 (Cholinesterase) [µM]
O=C1/C(=C/c2cccc3ccccc23)CN(C(=O)[C@H]2C[C@H]3CCCN3[C@]23C(=O)Nc2cc(Cl)ccc23)C/C1=C\c1cccc2ccccc12 | 5.81 | 9.65
O=C1/C(=C/c2ccccc2)CN(C(=O)[C@H]2C[C@H]3CCCN3[C@]23C(=O)Nc2cc(Cl)ccc23)C/C1=C\c1ccccc1 | 15.7 | 15.4
O=C1/C(=C/c2ccc(F)cc2)CN(C(=O)[C@H]2C[C@H]3CCCN3[C@]23C(=O)Nc2cc(Cl)ccc23)C/C1=C\c1ccc(F)cc1 | 22.3 | 3.64
O=C1/C(=C/c2ccc(Cl)cc2Cl)CN(C(=O)[C@H]2C[C@H]3CCCN3[C@]23C(=O)Nc2cc(Cl)ccc23)C/C1=C\c1ccc(Cl)cc1Cl | 3.33 | 20.1
COc1ccccc1/C=C1\CN(C(=O)[C@H]2C[C@H]3CCCN3[C@]23C(=O)Nc2cc(Cl)ccc23)C/C(=C\c2ccccc2OC)C1=O | 14.5 | 7.82
O=C1/C(=C/c2ccccc2Cl)CN(C(=O)[C@H]2C[C@H]3CCCN3[C@]23C(=O)Nc2cc(Cl)ccc23)C/C1=C\c1ccccc1Cl | 5.08 | 17.4
O=C1/C(=C/c2ccc(Cl)cc2)CN(C(=O)[C@H]2C[C@H]3CCCN3[C@]23C(=O)Nc2cc(Cl)ccc23)C/C1=C\c1ccc(Cl)cc1 | 3.36 | 28.2
Cc1ccc(/C=C2\CN(C(=O)[C@H]3C[C@H]4CCCN4[C@]34C(=O)Nc3cc(Cl)ccc34)C/C(=C\c3ccc(C)cc3)C2=O)cc1 | 7.6 | 22.2
O=C1/C(=C/c2cccc([N+](=O)[O-])c2)CN(C(=O)[C@H]2C[C@H]3CCCN3[C@]23C(=O)Nc2cc(Cl)ccc23)C/C1=C\c1cccc([N+](=O)[O-])c1 | 4.28 | 17.2
O=C1/C(=C/c2ccccc2F)CN(C(=O)[C@H]2C[C@H]3CCCN3[C@]23C(=O)Nc2cc(Cl)ccc23)C/C1=C\c1ccccc1F | 29.5 | 3.13
Cc1ccccc1/C=C1\CN(C(=O)[C@H]2C[C@H]3CCCN3[C@]23C(=O)Nc2cc(Cl)ccc23)C/C(=C\c2ccccc2C)C1=O | 11.2 | 15.1
